What all share (assay type): in vivo
The test system of experiment [1] is Myzus persicae (Sulzer) nymphs. The experiment in a line: Joint toxicity of I-72 + pymetrozine, Example 73, Table 73. The conditions noted are these: A = compound I-72, B = pymetrozine, cabbage leaf spraying, 48 hours, read-out: LC50. The procedure:
(§1) Test target: Myzus persicae (Sulzer) nymphs, a sensitive strain reared indoors.
(§2) Preparation of the pesticide solution: according to different test requirements, the test samples were accurately weighed respectively with an electronic analytical balance. The technical pesticides were dissolved in acetone, and then diluted with 0.1% Tween 80 water into a series of pesticide solutions with a certain concentration gradient according to the experimental design dosage.
(§3) Experimental method: first, cabbage leaves with uniform and consistent Myzus persicae (Sulzer) were selected, with about 30-40 insects on each leaf. Then, they were evenly sprayed with the pesticide solution in the order from low dosage to high dosage according to the experimental design, with 1.5 mL of the solution for each leaf and 3 replicates for each treatment. In addition, a blank control was set up.
The treated test materials were placed in an observation room, and the temperature, humidity and illumination of the observation room could be adjusted as needed. The number of dead and live insects was investigated 48 hours later. […] Then, the co-toxicity coefficient of each ratio was calculated using the Sun Y-P method to evaluate the mixing effect, as in Example 1.

The test system of experiment [2] is Myzus persicae (Sulzer) nymphs. The experiment in a line: whole plant or invertebrate. As to conditions: A = compound I-72, B = clothianidin, cabbage leaf spraying, 48 hours, read-out: LC50. The method, then:
as §1, §2, §3
The treated test materials were placed in an observation room, and the temperature, humidity and illumination of the observation room could be adjusted as needed. The number of dead and live insects was investigated 48 hours later.

For experiment [3], the system named is Liriomyza sativae Blanchard larvae. The experiment can be described thus: Joint toxicity of I-72 + cyromazine, Example 55, Table 55. As to conditions: A = compound I-72, B = cyromazine, kidney bean seedling spraying, counted after blank control larvae pupated, read-out: LC50. The procedure: Test target: Liriomyza sativae Blanchard larvae.
as §2
Experimental method: first, kidney bean seedlings with the Liriomyza sativae Blanchard larvae (the larvae had just invaded and formed mines) were selected. Spraying treatments were performed in the order from low dosage to high dosage according to the experimental design, with 3 replicates for each treatment. In addition, a blank control was set up.
The treated test materials were placed in an observation room, and the temperature, humidity and illumination of the observation room could be adjusted as needed. After the larvae in the blank control group pupated, the numbers of dead and live insects were then counted. […] Then, the co-toxicity coefficient of each ratio was calculated using the Sun Y-P method to evaluate the mixing effect (the same as in Example 1).

In experiment [4] the test system is 2nd-instar larvae of Chilo suppressalis (Walker). The experiment in a line: Joint toxicity of I-72 + carbaryl, rice stalk spraying, Example 23, Table 23. The source says: In addition, a blank control was set up.
The treated test materials were placed in an observation room, and the temperature, humidity and illumination of the observation room could be adjusted as needed.

The subject of the next experiment is Cnaphalocrocis medinalis. The experiment can be described thus: Field efficacy trial of I-72 and Bacillus thuringiensis on rice, Example 86, Table 86. The conditions noted are these: 20 days after application. The procedure: This trial was arranged in the suburban area of Jurong City, Jiangsu Province. The conventional spraying method was adopted in the trial. The investigation method was to take samples at 5 points, and a total of 25 clusters of rice were investigated. The investigation was performed 20 days after the pesticide application. By comparing with the leaf rolling rate in the control plot, the relative control efficacy was calculated. The amount of water used per mu was 45 L.
The test pesticides were as follows: A: 8000 IU/μL Bacillus thuringiensis suspension (produced by Qingdao Audis Biotechnology Co., Ltd. of Shandong), and B: compound I-72 (dissolved in acetone, 0.1% Tween 80 was added, and a 10% stock solution was prepared for use).
[formula] [formula] • in the formula, CK is the leaf rolling rate in the blank control plot after the pesticide application

For experiment [5], the system named is 2nd-instar larvae of Spodoptera exigua Hübner. The experiment in a line: Joint toxicity of I-72 + lufenuron, Example 54, Table 54. The conditions noted are these: foliar, A = compound I-72, B = lufenuron, cabbage leaf dipping, 72 hours, read-out: LC50. The procedure: Test target: 2nd-instar larvae of Spodoptera exigua Hübner.
as §2
Experimental method: first, cabbage leaves were selected and dipped in the prepared pesticide solution for 10 s in the order from low dosage to high dosage according to the experimental design. After natural air-drying in the shade, they were placed in a 9-cm-diameter Petri dish with filter paper, and uniform and healthy test insects were introduced, with 10 insects for each treatment and 3 replicates for each treatment. In addition, a blank control was set up.
The treated test materials were placed in an observation room, and the temperature, humidity and illumination of the observation room could be adjusted as needed. The number of dead and live insects was investigated 72 hours later. […] Then, the co-toxicity coefficient of each ratio was calculated using the Sun Y-P method to evaluate the mixing effect (the same as in Example 1).

The subject of experiment [6] is 3rd-instar larvae of Ostrinia furnacalis Guenee. The experiment can be described thus: Joint toxicity of I-72 + organophosphorus insecticides, corn stalk dipping, Example 21, Table 21. The conditions noted are these: 3rd-instar larvae, corn stalk dipping, 48 h, A = compound I-72, B = acephate, read-out: LC50. The method, then: Test target: 3rd-instar larvae of Ostrinia furnacalis Guenee, a sensitive strain reared indoors.
as §2
Experimental method: first, fresh tender corn stalks cultivated in the greenhouse were selected, cut into small sections of 3 cm, and dipped in the prepared pesticide solution for 10 s in the order from low dosage to high dosage according to the experimental design. After natural air-drying in the shade, they were placed in a 9-cm-diameter Petri dish with filter paper, and uniform and healthy test insects were introduced, with 10 insects for each treatment and 3 replicates for each treatment. In addition, a blank control was set up.
The treated test materials were placed in an observation room, and the temperature, humidity and illumination of the observation room could be adjusted as needed. The number of dead and live insects was investigated 48 hours later. The corrected mortality rate was calculated using the Abbott's formula, and statistical analysis was performed with the DPS data processing software to obtain the toxicity regression equation, LC50 value and 95% confidence limit of each single test pesticide and each mixture of different ratios. Then, the co-toxicity coefficient of each ratio was calculated using the Sun Y-P method to evaluate the mixing effect (the same as in Example 1).

Molecules are shown by their SMILES. In brackets after ≈: the same amount, converted by molar mass.

In the case of `CN(C(=O)c1ccc2c(c1)OC(F)(F)O2)c1cccc(C(=O)Nc2c(Br)cc(C(F)(C(F)(F)F)C(F)(F)F)cc2OC(F)F)c1F` [Compound I-72], the LC50 (in general, the concentration lethal to half of the exposed cells or organisms) worked out at 7.96 µg/mL in experiment [1]; 8.05 µg/mL (≈ 10.9 µM) in experiment [2]; 0.501 µg/mL in experiment [3]; 0.881 µg/mL in experiment [4]; 0.273 µg/mL in experiment [5]; 1.19 µg/mL in experiment [6]. Further, the Control efficacy with Cnaphalocrocis medinalis (dose 9 ml per mu) stood at 79.6%; with Cnaphalocrocis medinalis (dose 11.25 ml per mu) it was 85.0%; in the experiment on Cnaphalocrocis medinalis (dose 13.5 ml per mu), 86.8%. The figures for the Leaf rolling rate in the experiment on Cnaphalocrocis medinalis (dose 9 ml per mu), in the experiment on Cnaphalocrocis medinalis (dose 11.25 ml per mu) and with Cnaphalocrocis medinalis (dose 13.5 ml per mu) were 8.6%, 6.3% and 5.6%, respectively.

The record behind these values is patent publication US20260198495A1, “BINARY INSECTICIDE COMPOSITION AND USE THEREOF” (SHENYANG SINOCHEM AGROCHEMICALS R & D CO., LTD., priority 2022, published 2026).
